According to patent US10047083B2, “Dihydropyrimidinoisoquinolinones and pharmaceutical compositions thereof for the treatment of inflammatory disorders” (GALAPAGOS NV, priority 2011, dated 2018):

Columns and labels:
human neutrophils = assay: Human neutrophil migration assay (embelin-induced); format: cell-based; conditions: neutrophils from human buffy coat, 30 min compound pre-incubation, migration towards embelin at EC80 for 1 h, ATPlite readout, read-out: human neutrophil migration inhibition (Neutrophils)
Description: 2. Cellular Assays 2.1. Human Neutrophil Migration Assay
The effect of agonists or antagonists for GPR84 can therefore be assayed in a neutrophil migration test. In the neutrophil migration assay, neutrophils, freshly isolated from buffy coats from human volunteers, are treated with a compound for 30 minutes. Subsequently, the neutrophils are transferred to the upper wells of a Corning HTS transwell 96 permeable support system, of which the lower wells are filled with a embelin solution at EC80 (concentration which gives 80% of the activity of GPR84). After 1 h of incubation, migration of the neutrophils towards embelin in the lower compartment can be quantified by measuring the ATP-content of the lower wells using the ATPlite luminescence ATP detection assay system (Perkin Elmer, Cat. No.: 436110).
A human buffy coat is diluted with an equal volume of ice cold DPBS. 20 mL of the diluted buffy coat is gently mixed with 4 mL of ACD buffer (140 mM citric acid, 200 mM sodium citrate and 220 mM dextrose). Then, 12 mL of the 6% dextran/0.9% NaCl solution (15 g dextran T2000 and 2.25 g NaCl dissolved in 250 mL H2O) is added to the mixture and the samples are inverted gently up to 20 times. The total volume was transferred to a new recipient and incubated at room temperature for 1 h for complete separation of the two phases to occur. The yellowish supernatant is then transferred to a clean centrifugation tube and centrifuged for 12 minutes at 1300 rpm and 4° C. After centrifugation, the supernatant is discarded and the remaining cell pellet is rapidly resuspended in 12 mL of ice-cold H2O for red blood cell lysis to occur. After 20 seconds, 4 mL of ice-cold 0.6 M KCl is added. Samples are mixed carefully and centrifuged for 6 minutes at 1300 rpm, 4° C. The supernatant is discarded and the red blood cell lysis procedure is repeated one more time. Subsequently, the cell pellet is resuspended in 4 mL of DPBS and layered over 5 mL of Lymphoprep (Nycomed Pharma, Cat. No.: 1114545) in a 15 mL centrifuge tube. After centrifugation for 12 min at 1300 rpm, 4° C., the supernatant is removed and the cell pellet, containing the neutrophils, is resuspended in 25 mL chemotaxis buffer (RPMI 1640 medium, supplemented with 10 mM HEPES; freshly made for each experiment)
A cell suspension of 8.9×10^6 cells per milliliter is prepared. 20 μL of compound solution in chemotaxis buffer is added to 180 μL cell suspension. The mixture is incubated at 37° C. for 30 minutes with intermediate resuspension of the cells after 15 minutes. Following this, 70 μL cell suspension is transferred to the upper compartment of a Corning HTS transwell 96 permeable support system with 5.0 μm pore size polycarbonate membrane (Corning, Cat. No.: 3387). The receiver well of the transwell system is then filled with 200 μL chemotaxis buffer containing compound and chemotactic agent (embelin). After incubation at 37° C. in 5% CO2 for 1 h, the upper plate of the transwell system is removed and the cell suspension in the receiver plate is transferred to a 96-well V-bottom plate. 50 μL of DPBS is added to the receiver plate to prevent remaining cells from drying out. The V-bottom plate is centrifuged for 6 minutes at 1500 rpm. The supernatant is removed and the cells are resuspended in 50 μL DPBS. The cells are then transferred back to the receiver plate of the transwell system. After this, 100 μL ATPlite solution (Perkin Elmer, Cat. No: 436110) was added to the cells. The plate is incubated for 10 minutes in the dark, while shaking. […] of cell lysate is then transferred to a white 96-well plate and luminescence is measured. The detected luminescent signal is considered as linearely related to the number of cells having migrated from the upper well to the receiver well.

GPR84 = molecular target: T1, GPR84 (Homo sapiens, UniProt Q9NQS5); assay: GTPγS binding assay (GPR84); format: biochemical; conditions: membranes from stable cell line over expressing GPR84; 3,3′ di indolylmethane at EC80
T1 construct: expressed in transfected cells; membranes used
T1 sequence (Q9NQS5 whole entry): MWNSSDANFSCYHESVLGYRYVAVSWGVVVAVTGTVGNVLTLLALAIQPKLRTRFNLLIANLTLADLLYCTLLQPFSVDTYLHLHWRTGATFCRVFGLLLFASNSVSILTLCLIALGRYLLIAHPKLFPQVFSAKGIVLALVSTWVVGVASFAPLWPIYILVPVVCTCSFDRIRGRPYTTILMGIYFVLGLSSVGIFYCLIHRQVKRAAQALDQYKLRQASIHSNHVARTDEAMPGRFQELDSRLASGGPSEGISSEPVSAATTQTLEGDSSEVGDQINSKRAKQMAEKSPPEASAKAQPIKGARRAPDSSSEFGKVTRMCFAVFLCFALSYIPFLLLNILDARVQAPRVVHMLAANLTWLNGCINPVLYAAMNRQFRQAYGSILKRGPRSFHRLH
Outline: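 Membranes (20 μg/well) from a stable GPR84-overexpressing line, pre-incubated with 0.1 μM GDP for 15 min at 4° C, mixed with 0.1 nM [35S]GTPγS and WGA SpA beads in 20 mM HEPES pH 7.4, 5 mM MgCl2, 250 mM NaCl, 0.05% BSA, 75 ug/mL saponin; 90 min at room temperature, then scintillation counting.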

Structure (SMILES)	IC50 (human neutrophils) [nM]	IC50 (GPR84) [nM]
N#CCOc1ccc2c(c1)CCn1c-2cc(OCC2COCCO2)nc1=O (stereo not drawn) [Compound 7, [2-([1,4]dioxan-2-ylmethoxy)-4-oxo-6,7-dihydro-4H-pyrimido[6,1-a]isoquinolin-9-yloxy]-acetonitrile]	101 to 500	101 to 500
O=c1nc(OCC2COCCO2)cc2n1CCc1cc(OCc3ncco3)ccc1-2 (stereo not drawn) [Compound 8, 2-([1,4]dioxan-2-ylmethoxy)-9-(oxazol-2-ylmethoxy)-6,7-dihydro-pyrimido[6,1-a]isoquinolin-4-one]	101 to 500	101 to 500
O=c1nc(OCC2COCCO2)cc2n1CCc1cc(OCc3ccccn3)ccc1-2 (stereo not drawn) [Compound 9, 2-([1,4]dioxan-2-ylmethoxy)-9-(pyridin-2-ylmethoxy)-6,7-dihydro-pyrimido[6,1-a]isoquinolin-4-one]	0.01 to 100	0.01 to 100
Cn1cncc1C#Cc1ccc2c(c1)CCn1c-2cc(OCC2COCCO2)nc1=O (stereo not drawn) [Compound 16, 2-([1,4]dioxan-2-ylmethoxy)-9-(3-methyl-3H-imidazol-4-ylethynyl)-6,7-dihydro-pyrimido[6,1-a]isoquinolin-4-one]	101 to 500	101 to 500
O=c1nc(OCC2COCCO2)cc2n1CCc1cc(C#Cc3ccccn3)ccc1-2 (stereo not drawn) [Compound 36, 2-([1,4]dioxan-2-ylmethoxy)-9-pyridin-2-ylethynyl-6,7-dihydro-pyrimido[6,1-a]isoquinolin-4-one]	101 to 500	0.01 to 100
O=c1nc(OCC2COCCO2)cc2n1CCc1cc(C#Cc3cccnc3)ccc1-2 (stereo not drawn) [Compound 41, 2-([1,4]dioxan-2-ylmethoxy)-9-pyridin-3-ylethynyl-6,7-dihydro-pyrimido[6,1-a]isoquinolin-4-one]	0.01 to 100	101 to 500
CNC(=O)c1ccc(-c2ccc3c(c2)CCn2c-3cc(OCC3COCCO3)nc2=O)cc1 (stereo not drawn) [Compound 42, 4-[2-([1,4]dioxan-2-ylmethoxy)-4-oxo-6,7-dihydro-4H-pyrimido[6,1-a]isoquinolin-9-yl]-N-methyl-benzamide]	101 to 500	101 to 500
CC(C)(C)C#Cc1ccc2c(c1)CCn1c-2cc(OCC2COCCO2)nc1=O (stereo not drawn) [Compound 52, 9-(3,3-Dimethyl-but-1-ynyl)-2-([1,4]dioxan-2-ylmethoxy)-6,7-dihydro-pyrimido[6,1-a]isoquinolin-4-one]	0.01 to 100	0.01 to 100
COc1ncccc1-c1ccc2c(c1)CCn1c-2cc(OCC2COCCO2)nc1=O (stereo not drawn) [Compound 56, 2-([1,4]dioxan-2-ylmethoxy)-9-(2-methoxy-pyridin-3-yl)-6,7-dihydro-pyrimido[6,1-a]isoquinolin-4-one]	101 to 500	101 to 500
CC(C)Oc1ccc(-c2ccc3c(c2)CCn2c-3cc(OCC3COCCO3)nc2=O)cn1 (stereo not drawn) [Compound 60, 2-([1,4]Dioxan-2-ylmethoxy)-9-(6-isopropoxy-pyridin-3-yl)-6,7-dihydro-pyrimido[6,1-a]isoquinolin-4-one]	0.01 to 100	0.01 to 100
O=c1nc(OCC2COCCO2)cc2n1CCc1cc(-c3ccc(N4CCOCC4)nc3)ccc1-2 (stereo not drawn) [Compound 62, 2-([1,4]dioxan-2-ylmethoxy)-9-(6-morpholin-4-yl-pyridin-3-yl)-6,7-dihydro-pyrimido[6,1-a]isoquinolin-4-one]	0.01 to 100	0.01 to 100
COc1cccc(-c2ccc3c(c2)CCn2c-3cc(OCC3COCCO3)nc2=O)c1OC (stereo not drawn) [Compound 63, 9-(2,3-dimethoxy-phenyl)-2-([1,4]dioxan-2-ylmethoxy)-6,7-dihydro-pyrimido[6,1-a]isoquinolin-4-one]	0.01 to 100	101 to 500
O=c1nc(OCC2COCCO2)cc2n1CCc1cc(-c3ccc(N4CCCCC4)nc3)ccc1-2 (stereo not drawn) [Compound 68, 2-([1,4]dioxan-2-ylmethoxy)-9-(3,4,5,6-tetrahydro-2H-[1,2′]bipyridinyl-5′-yl)-6,7-dihydro-pyrimido[6,1-a]isoquinolin-4-one]	0.01 to 100	0.01 to 100
CCOc1ncccc1-c1ccc2c(c1)CCn1c-2cc(OCC2COCCO2)nc1=O (stereo not drawn) [Compound 69, 2-([1,4]dioxan-2-ylmethoxy)-9-(2-ethoxy-pyridin-3-yl)-6,7-dihydro-pyrimido[6,1-a]isoquinolin-4-one]	0.01 to 100	0.01 to 100
CC(C)(C)OCc1ccc2c(c1)CCn1c-2cc(OCC2COCCO2)nc1=O (stereo not drawn) [Compound 72, 9-tert-butoxymethyl-2-([1,4]dioxan-2-ylmethoxy)-6,7-dihydro-pyrimido[6,1-a]isoquinolin-4-one]	0.01 to 100	0.01 to 100
O=c1nc(OCC2COCCO2)cc2n1CCc1cc(OCc3noc(C4CC4)n3)ccc1-2 (stereo not drawn) [Compound 77, 9-(5-cyclopropyl-[1,2,4]oxadiazol-3-ylmethoxy)-2-([1,4]dioxan-2-ylmethoxy)-6,7-dihydro-pyrimido[6,1-a]isoquinolin-4-one]	0.01 to 100	0.01 to 100
CC(C)c1nc(COc2ccc3c(c2)CCn2c-3cc(OCC3COCCO3)nc2=O)no1 (stereo not drawn) [Compound 80, 2-([1,4]dioxan-2-ylmethoxy)-9-(5-isopropyl-[1,2,4]oxadiazol-3-ylmethoxy)-6,7-dihydro-pyrimido[6,1-a]isoquinolin-4-one]	0.01 to 100	0.01 to 100
CC(C)C#Cc1ccc2c(c1)CCn1c-2cc(OCC2COCCO2)nc1=O (stereo not drawn) [Compound 83, 2-([1,4]dioxan-2-ylmethoxy)-9-(3-methyl-but-1-ynyl)-6,7-dihydro-pyrimido[6,1-a]isoquinolin-4-one]	0.01 to 100	0.01 to 100
CCC(O)C#Cc1ccc2c(c1)CCn1c-2cc(OCC2COCCO2)nc1=O (stereo not drawn) [Compound 89, 2-([1,4]dioxan-2-ylmethoxy)-9-(3-hydroxy-pent-1-ynyl)-6,7-dihydro-pyrimido[6,1-a]isoquinolin-4-one]	0.01 to 100	101 to 500
CC(C)C(O)C#Cc1ccc2c(c1)CCn1c-2cc(OCC2COCCO2)nc1=O (stereo not drawn) [Compound 90, 2-([1,4]Dioxan-2-ylmethoxy)-9-(3-hydroxy-4-methyl-pent-1-ynyl)-6,7-dihydro-pyrimido[6,1-a]isoquinolin-4-one]	0.01 to 100	0.01 to 100
CCCC(O)C#Cc1ccc2c(c1)CCn1c-2cc(OCC2COCCO2)nc1=O (stereo not drawn) [Compound 98, 2-([1,4]dioxan-2-ylmethoxy)-9-(3-hydroxy-hex-1-ynyl)-6,7-dihydro-pyrimido[6,1-a]isoquinolin-4-one]	0.01 to 100	0.01 to 100
O=c1nc(OCC2COCCO2)cc2n1CCc1cc(C#CCNc3ccccc3)ccc1-2 (stereo not drawn) [Compound 107, 2-([1,4]dioxan-2-ylmethoxy)-9-(3-phenylamino-prop-1-ynyl)-6,7-dihydro-pyrimido[6,1-a]isoquinolin-4-one]	0.01 to 100	0.01 to 100
CC(C)C#Cc1ccc2c(c1)CCn1c-2cc(OC[C@@H]2COCCO2)nc1=O [Compound 112, 2-((S)-1-[1,4]dioxan-2-ylmethoxy)-9-(3-methyl-but-1-ynyl)-6,7-dihydro-pyrimido[6,1-a]isoquinolin-4-one]	0.01 to 100	0.01 to 100
O=c1nc(OC[C@H]2COCCO2)cc2n1CCc1cc(CCC3CC3)ccc1-2 [Compound 114, 9-(2-cyclopropyl-ethyl)-2-((R)-1-[1,4]dioxan-2-ylmethoxy)-6,7-dihydro-pyrimido[6,1-a]isoquinolin-4-one]	0.01 to 100	0.01 to 100
